# Test results from ChEMBL document CHEMBL5696441 (Nat Chem Biol, 2011).
# Active and inactive are the calls of the source. The rule behind the calls is not given here.
# What was measured:
# [1] = target: Calcium/calmodulin-dependent protein kinase type 1G (Homo sapiens) (UniProt Q96NX5); assay: Inhibition of CAMK1G (unknown origin) assessed as remaining activity at 1 uM by Kinome scan method relative to control
# [2] = target: Citron Rho-interacting kinase (Homo sapiens) (UniProt O14578); assay: Inhibition of CIT (unknown origin) assessed as remaining activity at 1 uM by Kinome scan method relative to control
# [3] = target: Ephrin type-A receptor 8 (Homo sapiens) (UniProt P29322); assay: Inhibition of EPHA8 (unknown origin) assessed as remaining activity at 1 uM by Kinome scan method relative to control
# [4] = target: Ephrin type-B receptor 3 (Homo sapiens) (UniProt P54753); assay: Inhibition of EPHB3 (unknown origin) assessed as remaining activity at 1 uM by Kinome scan method relative to control
# [5] = target: Serine/threonine-protein kinase 10 (Homo sapiens) (UniProt O94804); assay: Inhibition of LOK (unknown origin) assessed as remaining activity at 1 uM by Kinome scan method relative to control
# [6] = target: Serine/threonine-protein kinase Nek6 (Homo sapiens) (UniProt Q9HC98); assay: Inhibition of NEK6 (unknown origin) assessed as remaining activity at 1 uM by Kinome scan method relative to control
# [7] = target: Serine/threonine-protein kinase pim-3 (Homo sapiens) (UniProt Q86V86); assay: Inhibition of PIM3 (unknown origin) assessed as remaining activity at 1 uM by Kinome scan method relative to control
# [8] = target: SRSF protein kinase 3 (Homo sapiens) (UniProt Q9UPE1); assay: Inhibition of SRPK3 (unknown origin) assessed as remaining activity at 1 uM by Kinome scan method relative to control
# [9] = target: Bone morphogenetic protein receptor type-1A (Homo sapiens) (UniProt P36894); assay: Inhibition of human BMPR1A assessed as residual activity at 1 uM using casein as substrate in presence of 33P-ATP by ProQinase assay relative to control
# [10] = target: Cytoplasmic tyrosine-protein kinase BMX (Homo sapiens) (UniProt P51813); assay: Inhibition of human BMX assessed as residual activity at 1 uM using polyEy as substrate in presence of 33P-ATP by ProQinase assay relative to control
# [11] = target: Cyclin-dependent kinase 5/CDK5 activator 1 (Homo sapiens) (UniProt Q00535+Q15078); assay: Inhibition of human CDK5/p35NCK assessed as residual activity at 1 uM using RBER-CHKtide as substrate in presence of 33P-ATP by ProQinase assay relative to control; format: protein-complex assay
# [12] = target: CDK8/Cyclin C (Homo sapiens) (UniProt P49336+P24863); assay: Inhibition of human CDK8/CyclinC assessed as residual activity at 1 uM using RBER-CHKtide as substrate in presence of 33P-ATP by ProQinase assay relative to control; format: protein-complex assay
# [13] = target: T1, Serine/threonine-protein kinase Chk1 (Homo sapiens) (UniProt O14757); assay: Inhibition of human CHK1 assessed as residual activity at 1 uM using RBER-CHKtide as substrate in presence of 33P-ATP by ProQinase assay relative to control
# T1 sequence (whole entry): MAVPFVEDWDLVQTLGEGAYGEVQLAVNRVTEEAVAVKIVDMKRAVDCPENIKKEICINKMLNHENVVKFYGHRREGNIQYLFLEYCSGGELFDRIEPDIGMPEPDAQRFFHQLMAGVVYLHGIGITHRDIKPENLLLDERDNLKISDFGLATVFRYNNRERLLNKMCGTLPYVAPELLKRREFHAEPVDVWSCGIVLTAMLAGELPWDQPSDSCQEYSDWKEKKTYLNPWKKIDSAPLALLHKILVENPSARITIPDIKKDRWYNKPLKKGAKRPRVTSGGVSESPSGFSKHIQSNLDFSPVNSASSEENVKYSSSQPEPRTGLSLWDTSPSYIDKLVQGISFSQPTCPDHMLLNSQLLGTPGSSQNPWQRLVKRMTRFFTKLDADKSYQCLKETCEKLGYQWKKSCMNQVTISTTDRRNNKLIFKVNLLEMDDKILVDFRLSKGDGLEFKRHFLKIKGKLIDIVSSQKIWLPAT
# [14] = target: Homeodomain-interacting protein kinase 1 (Homo sapiens) (UniProt Q86Z02); assay: Inhibition of human HIPK1 assessed as residual activity at 1 uM using RBER-CHKtide as substrate in presence of 33P-ATP by ProQinase assay relative to control
# [15] = target: Eukaryotic translation initiation factor 2-alpha kinase 1 (Homo sapiens) (UniProt Q9BQI3); assay: Inhibition of human HRI assessed as residual activity at 1 uM using casein as substrate in presence of 33P-ATP by ProQinase assay relative to control
# [16] = target: Tyrosine-protein kinase Lck (Homo sapiens) (UniProt P06239); assay: Inhibition of human LCK assessed as residual activity at 1 uM using polyEY as substrate in presence of 33P-ATP by ProQinase assay relative to control
# [17] = target: Leucine-rich repeat serine/threonine-protein kinase 2 (Homo sapiens) (UniProt Q5S007); assay: Inhibition of human LRRK2 assessed as residual activity at 1 uM using RBER-GSK3(14-27) as substrate in presence of 33P-ATP by ProQinase assay relative to control
# [18] = target: Serine/threonine-protein kinase Nek4 (Homo sapiens) (UniProt P51957); assay: Inhibition of human NEK4 assessed as residual activity at 1 uM using MBP as substrate in presence of 33P-ATP by ProQinase assay relative to control
# [19] = target: Macrophage-stimulating protein receptor (Homo sapiens) (UniProt Q04912); assay: Inhibition of human RON assessed as residual activity at 1 uM using polyEY as substrate in presence of 33P-ATP by ProQinase assay relative to control
# [20] = target: SRSF protein kinase 1 (Homo sapiens) (UniProt Q96SB4); assay: Inhibition of human SRPK1 assessed as residual activity at 1 uM using MBP as substrate in presence of 33P-ATP by ProQinase assay relative to control
# [21] = target: MAP kinase p38 (Homo sapiens) (UniProt O15264+Q15759+Q16539+P53778); assay: Inhibition of p38-MAPK in human HeLa cells assessed as reduction in HSP27 phosphorylation at Ser82 level at 50 nM incubated for 2 hrs in the presence of anisomycin stimulation for 40 mins by western blot analysis; format: cell-based
# Sequence of Leucine-rich repeat serine/threonine-protein kinase 2 (Homo sapiens) (Q5S007 whole entry): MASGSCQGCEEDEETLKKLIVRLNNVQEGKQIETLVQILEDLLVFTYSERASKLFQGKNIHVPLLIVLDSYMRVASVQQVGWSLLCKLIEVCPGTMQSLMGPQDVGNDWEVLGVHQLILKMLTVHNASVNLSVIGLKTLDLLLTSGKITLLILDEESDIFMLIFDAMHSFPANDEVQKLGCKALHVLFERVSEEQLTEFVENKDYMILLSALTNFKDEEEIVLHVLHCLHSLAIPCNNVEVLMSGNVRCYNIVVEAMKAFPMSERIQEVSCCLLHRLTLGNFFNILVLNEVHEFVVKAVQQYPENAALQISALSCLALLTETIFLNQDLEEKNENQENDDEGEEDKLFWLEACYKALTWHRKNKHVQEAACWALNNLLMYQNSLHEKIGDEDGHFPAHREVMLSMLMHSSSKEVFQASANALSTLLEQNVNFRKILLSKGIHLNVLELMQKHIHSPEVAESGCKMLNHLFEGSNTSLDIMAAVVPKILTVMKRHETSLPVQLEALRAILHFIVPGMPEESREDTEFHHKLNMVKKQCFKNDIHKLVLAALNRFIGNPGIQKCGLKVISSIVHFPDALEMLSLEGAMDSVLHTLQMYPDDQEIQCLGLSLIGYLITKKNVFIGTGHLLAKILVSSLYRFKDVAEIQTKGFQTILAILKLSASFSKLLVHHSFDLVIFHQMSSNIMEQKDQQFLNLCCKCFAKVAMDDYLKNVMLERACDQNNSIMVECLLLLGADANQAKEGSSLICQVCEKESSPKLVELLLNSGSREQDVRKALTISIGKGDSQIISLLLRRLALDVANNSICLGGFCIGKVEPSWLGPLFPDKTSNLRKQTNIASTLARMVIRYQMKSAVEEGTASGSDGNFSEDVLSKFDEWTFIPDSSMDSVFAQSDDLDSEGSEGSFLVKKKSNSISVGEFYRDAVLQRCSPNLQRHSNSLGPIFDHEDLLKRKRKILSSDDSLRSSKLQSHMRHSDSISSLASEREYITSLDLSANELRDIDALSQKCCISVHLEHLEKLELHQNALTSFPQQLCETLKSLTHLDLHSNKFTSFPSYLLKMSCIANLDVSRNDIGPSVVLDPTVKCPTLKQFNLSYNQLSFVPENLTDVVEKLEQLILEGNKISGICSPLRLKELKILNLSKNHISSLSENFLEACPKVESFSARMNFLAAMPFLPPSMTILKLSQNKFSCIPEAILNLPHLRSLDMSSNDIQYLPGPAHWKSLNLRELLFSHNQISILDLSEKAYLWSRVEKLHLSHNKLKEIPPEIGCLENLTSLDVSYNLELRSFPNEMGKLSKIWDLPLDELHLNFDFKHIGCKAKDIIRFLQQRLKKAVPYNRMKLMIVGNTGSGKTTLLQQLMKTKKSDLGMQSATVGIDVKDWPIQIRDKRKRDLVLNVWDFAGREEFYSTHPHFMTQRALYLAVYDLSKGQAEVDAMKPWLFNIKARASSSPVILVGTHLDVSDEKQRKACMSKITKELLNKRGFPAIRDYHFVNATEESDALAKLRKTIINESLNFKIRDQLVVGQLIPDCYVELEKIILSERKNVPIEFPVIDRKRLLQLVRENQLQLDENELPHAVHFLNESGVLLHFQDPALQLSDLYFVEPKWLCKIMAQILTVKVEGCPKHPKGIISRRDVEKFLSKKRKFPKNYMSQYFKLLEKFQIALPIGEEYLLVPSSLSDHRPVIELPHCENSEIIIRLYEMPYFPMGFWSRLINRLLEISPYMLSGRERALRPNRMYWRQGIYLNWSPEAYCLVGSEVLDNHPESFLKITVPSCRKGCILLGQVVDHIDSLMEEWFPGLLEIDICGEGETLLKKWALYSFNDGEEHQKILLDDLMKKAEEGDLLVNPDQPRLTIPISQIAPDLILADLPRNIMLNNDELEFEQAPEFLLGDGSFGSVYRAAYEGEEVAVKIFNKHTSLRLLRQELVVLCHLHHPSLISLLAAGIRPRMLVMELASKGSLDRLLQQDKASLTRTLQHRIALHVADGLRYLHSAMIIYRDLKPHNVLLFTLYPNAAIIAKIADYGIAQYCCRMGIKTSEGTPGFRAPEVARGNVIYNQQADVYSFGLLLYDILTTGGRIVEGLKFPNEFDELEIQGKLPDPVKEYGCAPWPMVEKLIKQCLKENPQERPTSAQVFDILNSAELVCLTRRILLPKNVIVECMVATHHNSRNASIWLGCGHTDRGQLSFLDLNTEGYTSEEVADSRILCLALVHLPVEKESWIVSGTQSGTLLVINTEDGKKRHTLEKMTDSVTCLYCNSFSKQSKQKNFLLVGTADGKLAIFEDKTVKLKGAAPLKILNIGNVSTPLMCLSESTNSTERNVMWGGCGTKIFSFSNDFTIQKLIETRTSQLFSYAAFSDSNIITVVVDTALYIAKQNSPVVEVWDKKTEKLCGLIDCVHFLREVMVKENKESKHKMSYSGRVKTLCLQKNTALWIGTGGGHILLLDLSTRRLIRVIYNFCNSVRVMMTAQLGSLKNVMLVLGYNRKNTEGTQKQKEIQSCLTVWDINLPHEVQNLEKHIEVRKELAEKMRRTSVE
# Sequence of Serine/threonine-protein kinase 10 (Homo sapiens) (O94804 whole entry, looked up): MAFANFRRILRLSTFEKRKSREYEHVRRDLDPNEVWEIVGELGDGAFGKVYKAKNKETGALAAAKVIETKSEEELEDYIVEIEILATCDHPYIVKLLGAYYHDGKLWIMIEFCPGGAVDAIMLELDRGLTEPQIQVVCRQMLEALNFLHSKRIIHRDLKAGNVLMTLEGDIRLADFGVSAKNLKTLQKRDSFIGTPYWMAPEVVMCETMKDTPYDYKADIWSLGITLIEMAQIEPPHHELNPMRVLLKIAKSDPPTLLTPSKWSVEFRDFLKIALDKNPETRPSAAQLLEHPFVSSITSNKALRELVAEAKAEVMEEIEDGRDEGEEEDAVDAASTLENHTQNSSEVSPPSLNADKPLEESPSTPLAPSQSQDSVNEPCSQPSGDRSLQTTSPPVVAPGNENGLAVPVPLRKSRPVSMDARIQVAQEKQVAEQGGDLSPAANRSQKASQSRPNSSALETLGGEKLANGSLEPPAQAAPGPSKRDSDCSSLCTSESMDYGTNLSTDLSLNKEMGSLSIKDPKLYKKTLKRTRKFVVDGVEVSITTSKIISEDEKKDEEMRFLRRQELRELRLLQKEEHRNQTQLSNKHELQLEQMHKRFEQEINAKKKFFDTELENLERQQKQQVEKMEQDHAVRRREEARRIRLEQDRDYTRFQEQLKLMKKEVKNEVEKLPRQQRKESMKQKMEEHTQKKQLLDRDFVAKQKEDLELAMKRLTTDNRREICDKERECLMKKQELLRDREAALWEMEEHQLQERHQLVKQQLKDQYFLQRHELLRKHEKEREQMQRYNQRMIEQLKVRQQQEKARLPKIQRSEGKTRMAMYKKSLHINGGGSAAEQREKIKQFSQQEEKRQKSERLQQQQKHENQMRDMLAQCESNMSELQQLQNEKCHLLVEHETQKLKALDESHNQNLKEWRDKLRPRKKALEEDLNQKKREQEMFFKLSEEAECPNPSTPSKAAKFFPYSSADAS
# Sequence of Serine/threonine-protein kinase Nek4 (Homo sapiens) (P51957 whole entry, looked up): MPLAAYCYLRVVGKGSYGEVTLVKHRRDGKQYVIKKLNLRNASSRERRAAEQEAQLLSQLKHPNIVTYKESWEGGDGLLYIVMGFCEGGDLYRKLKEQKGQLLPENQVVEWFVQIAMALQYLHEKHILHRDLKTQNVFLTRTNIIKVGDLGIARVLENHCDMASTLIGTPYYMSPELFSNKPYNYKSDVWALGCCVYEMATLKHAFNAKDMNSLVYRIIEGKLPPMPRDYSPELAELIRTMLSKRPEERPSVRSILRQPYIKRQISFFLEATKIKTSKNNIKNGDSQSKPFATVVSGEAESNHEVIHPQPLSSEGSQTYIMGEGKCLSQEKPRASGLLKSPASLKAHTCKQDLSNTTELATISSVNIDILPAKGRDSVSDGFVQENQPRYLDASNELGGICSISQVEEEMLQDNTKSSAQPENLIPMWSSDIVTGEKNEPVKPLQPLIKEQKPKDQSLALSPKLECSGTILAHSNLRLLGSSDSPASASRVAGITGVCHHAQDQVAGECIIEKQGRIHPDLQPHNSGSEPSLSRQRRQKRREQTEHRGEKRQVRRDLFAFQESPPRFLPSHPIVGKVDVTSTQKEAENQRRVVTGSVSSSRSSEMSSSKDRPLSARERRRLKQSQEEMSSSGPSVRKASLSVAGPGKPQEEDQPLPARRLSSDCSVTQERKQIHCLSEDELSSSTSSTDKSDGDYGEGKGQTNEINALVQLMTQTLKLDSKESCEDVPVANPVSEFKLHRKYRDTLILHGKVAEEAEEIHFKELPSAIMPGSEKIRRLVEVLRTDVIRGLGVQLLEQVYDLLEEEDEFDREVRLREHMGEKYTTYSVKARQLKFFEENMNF
# Sequence of Serine/threonine-protein kinase Nek6 (Homo sapiens) (Q9HC98 whole entry): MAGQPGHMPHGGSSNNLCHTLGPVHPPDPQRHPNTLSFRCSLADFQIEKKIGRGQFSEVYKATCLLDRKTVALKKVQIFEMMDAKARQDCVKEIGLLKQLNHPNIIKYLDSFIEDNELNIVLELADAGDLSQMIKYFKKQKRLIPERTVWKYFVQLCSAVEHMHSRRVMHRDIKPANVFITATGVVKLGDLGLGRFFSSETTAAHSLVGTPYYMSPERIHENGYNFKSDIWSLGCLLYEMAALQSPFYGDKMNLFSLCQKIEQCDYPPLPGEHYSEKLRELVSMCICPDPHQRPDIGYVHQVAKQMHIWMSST
smiles,measurement,setting,value
O=C1c2ccc(Nc3ccc(F)cc3F)cc2CCc2ccc(OC[C@H](O)CO)cc21 [Skepinone-L],Activity,[1],96%
same,Activity,[2],92%
same,Activity,[3],90%
same,Activity,[4],100%
same,Activity,[5],96%
same,Activity,[6],100%
same,Activity,[7],100%
same,Activity,[8],100%
same,Activity,[9],100%
same,Activity,[10],108%
same,Activity,[11],90%
same,Activity,[12],105%
same,Activity,[13],94%
same,Activity,[14],98%
same,Activity,[15],106%
same,Activity,[16],102%
same,Activity,[17],98%
same,Activity,[18],99%
same,Activity,[19],56%
same,Activity,[20],100%
same,inhibition,[21],Active
